Test results taken from patent publication US8361968B2 (Takeda Pharmaceutical Company Limited, priority 2002, dated 2013).
Values joined by “and” are separate entries in the source; they are usually repeats but may differ in a detail not shown here. Identical values can stand only once. Square brackets hold non-standard residues; d marks the D form. Peptide text beside a SMILES is read from it. * marks the point of attachment. Propanoyl(3-indol-3-yl) = O=C(CCc1c[nH]c2ccccc12)*; Diphenylacetyl = O=C(C(c1ccccc1)c1ccccc1)*; 1Nal = N[C@@H](Cc1cccc2ccccc12)C(=O)O; Arg(Me) = CNC(=N)NCCC[C@H](N)C(=O)O; Bta = N[C@@H](Cc1csc2ccccc12)C(=O)O; Hydrocinnamoyl = O=C(CCc1ccccc1)*; X2 = O=C(Cc1c[nH]c2ccccc12)*; X6 = O=C(c1c[nH]c2ccccc12)*; azaGly = NNC(=O)O

Tests used:
hOT7T175 [1] = target: T1, hOT7T175 (Homo sapiens, UniProt Q969F8, L364H); test: hOT7T175 receptor binding activity: binding inhibition of Cy-5-labeled metastin (40-54) on hOT7T175-expressed CHO cells; design: expressed in transfected cells; host or cells: CHO cells
hOT7T175 [2] = target: T1, hOT7T175; test: Intracellular Ca ion level-increasing activity using FLIPR in hOT7T175/CHO; format: cell-based; design: expressed in transfected cells; host or cells: CHO/dhfr- cells, obtained from ATCC; conditions: relative, Metastin (1-54) = 1

T1 sequence (Q969F8 whole entry L364H): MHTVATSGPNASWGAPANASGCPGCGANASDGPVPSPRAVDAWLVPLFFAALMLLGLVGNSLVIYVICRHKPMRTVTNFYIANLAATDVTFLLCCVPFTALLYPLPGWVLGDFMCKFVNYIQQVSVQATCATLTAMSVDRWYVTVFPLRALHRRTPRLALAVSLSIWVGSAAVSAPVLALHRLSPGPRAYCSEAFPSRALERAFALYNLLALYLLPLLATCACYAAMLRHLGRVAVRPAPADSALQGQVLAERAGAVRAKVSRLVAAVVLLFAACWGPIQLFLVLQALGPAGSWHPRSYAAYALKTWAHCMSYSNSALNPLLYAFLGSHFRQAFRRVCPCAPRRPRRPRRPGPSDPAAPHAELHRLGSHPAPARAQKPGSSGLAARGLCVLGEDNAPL

| Compound | IC50 (hOT7T175 [1]) [nM] | Specific Activity (intracellular Ca ion level-increasing activity) (hOT7T175 [2]) |
| --- | --- | --- |
| CC(C)C[C@H](NC(=O)CNC(=O)[C@H](Cc1ccccc1)NC(=O)[C@H](CO)NC(=O)[C@H](CC(N)=O)NC(=O)[C@H](Cc1c[nH]c2ccccc12)NC(=O)[C@H](CC(N)=O)NC(=O)[C@@H](N)Cc1ccc(O)cc1)C(=O)N[C@@H](CCCNC(=N)N)C(=O)N[C@@H](Cc1csc2ccccc12)C(N)=O [Compound No. 189] (H-YNWNSFGLR[Bta]-NH2; N-terminus assumed) | 230 | 10 |
| CC(C)C[C@H](NC(=O)CNC(=O)[C@H](Cc1ccccc1)NC(=O)[C@H](CO)NC(=O)[C@H](CC(N)=O)NC(=O)[C@H](Cc1c[nH]c2ccccc12)NC(=O)[C@H](CC(N)=O)NC(=O)[C@@H](N)Cc1ccc(O)cc1)C(=O)N[C@@H](CCCNC(=N)N)C(=O)N[C@@H](Cc1ccc(Cl)c(Cl)c1)C(N)=O [Compound No. 199] | 470 | 3 |
| CC(C)C[C@H](NC(=O)CNC(=O)[C@H](Cc1ccccc1)NC(=O)[C@H](CO)NC(=O)[C@H](CC(N)=O)NC(=O)[C@H](Cc1c[nH]c2ccccc12)NC(=O)[C@H](CC(N)=O)NC(=O)[C@@H](N)Cc1ccc(O)cc1)C(=O)N[C@@H](CCCNC(=N)N)C(=O)N[C@@H](Cc1cccc(C(F)(F)F)c1)C(N)=O [Compound No. 200] | 340 | 10 |
| CNC(=N)NCCC[C@H](NC(=O)[C@H](CC(C)C)NC(=O)CNC(=O)[C@H](Cc1ccccc1)NC(=O)[C@H](CO)NC(=O)[C@H](CC(N)=O)NC(=O)[C@@H](NC(=O)[C@H](CC(N)=O)NC(=O)[C@H](N)Cc1ccc(O)cc1)[C@@H](C)O)C(=O)N[C@@H](Cc1ccccc1)C(N)=O [Compound No. 205] (H-[dY]NTNSFGL[Arg(Me)]F-NH2) | 260 | 10 |
| CNC(=N)NCCC[C@H](NC(=O)[C@@H](NC(=O)CNC(=O)[C@H](Cc1ccccc1)NC(=O)[C@H](CO)NC(=O)[C@H](CC(N)=O)NC(=O)[C@H](Cc1c[nH]c2ccccc12)NC(=O)[C@H](CC(N)=O)NC(=O)[C@H](N)Cc1ccc(O)cc1)C(C)C)C(=O)N[C@@H](Cc1ccccc1)C(N)=O [Compound No. 213] (H-[dY]NWNSFGV[Arg(Me)]F-NH2) | 190 | 2 |
| CCNC(=N)NCCC[C@H](NC(=O)[C@H](CC(C)C)NC(=O)CNC(=O)[C@H](Cc1ccccc1)NC(=O)[C@H](CO)NC(=O)[C@H](CC(N)=O)NC(=O)[C@H](Cc1c[nH]c2ccccc12)NC(=O)[C@H](CC(N)=O)NC(=O)[C@@H](N)Cc1ccc(O)cc1)C(=O)N[C@@H](Cc1ccccc1)C(N)=O [Compound No. 220] | 330 | 5 |
| CNC(=N)NCCC[C@H](NC(=O)[C@H](CC(C)C)NC(=O)NNC(=O)[C@H](Cc1ccccc1)NC(=O)[C@H](CO)NC(=O)[C@H](CC(N)=O)NC(=O)[C@H](Cc1c[nH]c2ccccc12)NC(=O)[C@H](N)Cc1ccc(O)cc1)C(=O)N[C@@H](Cc1ccccc1)C(N)=O [Compound No. 222, D-Tyr-Trp-Asn-Ser-Phe-AzaGly-Leu-Arg(Me)-Phe-NH2] (H-[dY]WNSF[azaGly]L[Arg(Me)]F-NH2) | 33 | 5 |
| CNC(=N)NCCC[C@H](NC(=O)[C@H](CC(C)C)NC(=O)CNC(=O)[C@H](Cc1ccccc1)NC(=O)[C@H](CO)NC(=O)[C@H](CC(N)=O)NC(=O)[C@@H](Cc1c[nH]c2ccccc12)NC(=O)[C@H](N)Cc1ccc(O)cc1)C(=O)N[C@@H](Cc1ccccc1)C(N)=O [Compound No. 224, D-Tyr-D-Trp-Asn-Ser-Phe-Gly-Leu-Arg(Me)-Phe-NH2] (H-[dY][dW]NSFGL[Arg(Me)]F-NH2) | 140 | 2 and 1 |
| CC[C@H](C)[C@H](NC(=O)[C@H](N)Cc1ccc(O)cc1)C(=O)N[C@@H](CC(N)=O)C(=O)N[C@@H](CO)C(=O)N[C@@H](Cc1ccccc1)C(=O)NCC(=O)N[C@@H](CC(C)C)C(=O)N[C@@H](CCCNC(=N)NC)C(=O)N[C@@H](Cc1ccccc1)C(N)=O [Compound No. 228] (H-[dY]INSFGL[Arg(Me)]F-NH2) | 40 | 5 |
| CC[C@H](C)[C@H](NC(=O)[C@H](CC(N)=O)NC(=O)[C@H](N)Cc1ccc(O)cc1)C(=O)N[C@@H](CC(N)=O)C(=O)N[C@@H](CO)C(=O)N[C@@H](Cc1ccccc1)C(=O)NNC(=O)N[C@@H](CC(C)C)C(=O)N[C@@H](CCCNC(=N)NC)C(=O)N[C@@H](Cc1ccccc1)C(N)=O [Compound No. 233, D-Tyr-Asn-Ile-Asn-Ser-Phe-AzaGly-Leu-Arg(Me)-Phe-NH2] (H-[dY]NINSF[azaGly]L[Arg(Me)]F-NH2) | 23 | 1 |
| CNC(=N)NCCC[C@H](NC(=O)[C@H](CC(C)C)NC(=O)NNC(=O)[C@H](Cc1ccccc1)NC(=O)[C@H](CO)NC(=O)[C@H](CC(N)=O)NC(=O)[C@H](C)NC(=O)[C@H](CC(N)=O)NC(=O)[C@H](N)Cc1ccc(O)cc1)C(=O)N[C@@H](Cc1ccccc1)C(N)=O [Compound No. 235, D-Tyr-Asn-Ala-Asn-Ser-Phe-AzaGly-Leu-Arg(Me)-Phe-NH2] (H-[dY]NANSF[azaGly]L[Arg(Me)]F-NH2) | 100 | 1 |
| CNC(=N)NCCC[C@H](NC(=O)[C@H](CC(C)C)NC(=O)NNC(=O)[C@H](Cc1ccccc1)NC(=O)[C@H](CO)NC(=O)[C@H](CC(N)=O)NC(=O)[C@@H](Cc1c[nH]c2ccccc12)NC(=O)[C@H](CC(N)=O)NC(=O)[C@H](N)Cc1ccc(O)cc1)C(=O)N[C@@H](Cc1ccccc1)C(N)=O [Compound No. 236, D-Tyr-Asn-D-Trp-Asn-Ser-Phe-AzaGly-Leu-Arg(Me)-Phe-NH2] | 42 | 2 |
| CNC(=N)NCCC[C@H](NC(=O)[C@H](CC(C)C)NC(=O)NNC(=O)[C@H](Cc1ccccc1)NC(=O)[C@H](CO)NC(=O)[C@H](CC(N)=O)NC(=O)[C@H](Cc1c[nH]c2ccccc12)NC(=O)[C@@H](CC(N)=O)NC(=O)[C@H](N)Cc1ccc(O)cc1)C(=O)N[C@@H](Cc1ccccc1)C(N)=O [Compound No. 237, D-Tyr-D-Asn-Trp-Asn-Ser-Phe-AzaGly-Leu-Arg(Me)-Phe-NH2] | 27 | 3 |
| CNC(=N)NCCC[C@H](NC(=O)[C@H](CC(C)C)NC(=O)NNC(=O)[C@H](Cc1ccccc1)NC(=O)[C@H](CO)NC(=O)[C@H](CC(N)=O)NC(=O)[C@@H](Cc1c[nH]c2ccccc12)NC(=O)[C@@H](CC(N)=O)NC(=O)[C@H](N)Cc1ccc(O)cc1)C(=O)N[C@@H](Cc1ccccc1)C(N)=O [Compound No. 238, D-Tyr-D-Asn-D-Trp-Asn-Ser-Phe-AzaGly-Leu-Arg(Me)-Phe-NH2] | 49 | 1 |
| CNC(=N)NCCC[C@H](NC(=O)[C@H](CC(C)C)NC(=O)NNC(=O)[C@H](Cc1ccccc1)NC(=O)[C@H](CO)NC(=O)[C@H](CC(N)=O)NC(=O)[C@H](Cc1cccc2ccccc12)NC(=O)[C@H](CC(N)=O)NC(=O)[C@H](N)Cc1ccc(O)cc1)C(=O)N[C@@H](Cc1ccccc1)C(N)=O [Compound No. 245, D-Tyr-Asn-Nal(1)-Asn-Ser-Phe-AzaGly-Leu-Arg(Me)-Phe-NH2] (H-[dY]N[1Nal]NSF[azaGly]L[Arg(Me)]F-NH2) | 98 | 1 |
| CNC(=N)NCCC[C@H](NC(=O)[C@H](CC(C)C)NC(=O)NNC(=O)[C@H](Cc1ccccc1)NC(=O)[C@H](CO)NC(=O)[C@H](CC(N)=O)NC(=O)CCc1c[nH]c2ccccc12)C(=O)N[C@@H](Cc1ccccc1)C(N)=O [Compound No. 260, 3-(3-Indolyl)propionyl-Asn-Ser-Phe-AzaGly-Leu-Arg(Me)-Phe-NH2] ({Propanoyl(3-indol-3-yl)}-NSF[azaGly]L[Arg(Me)]F-NH2) | 320 | 5 |
| CNC(=N)NCCC[C@H](NC(=O)[C@H](CC(C)C)NC(=O)NNC(=O)[C@H](Cc1ccccc1)NC(=O)[C@H](CO)NC(=O)[C@H](CC(N)=O)NC(=O)c1c[nH]c2ccccc12)C(=O)N[C@@H](Cc1ccccc1)C(N)=O [Compound No. 265, Indole-3-carbonyl-Asn-Ser-Phe-AzaGly-Leu-Arg(Me)-Phe-NH2] (X6-NSF[azaGly]L[Arg(Me)]F-NH2) | 95 | 3 |
| CNC(=N)NCCC[C@H](NC(=O)[C@H](CC(C)C)NC(=O)NNC(=O)[C@H](Cc1ccccc1)NC(=O)[C@H](CO)NC(=O)[C@H](CC(N)=O)NC(=O)Cc1c[nH]c2ccccc12)C(=O)N[C@@H](Cc1ccccc1)C(N)=O [Compound No. 266, Indol-3-acetyl-Asn-Ser-Phe-AzaGly-Leu-Arg(Me)-Phe-NH2] (X2-NSF[azaGly]L[Arg(Me)]F-NH2) | 230 | 2 |
| CNC(=N)NCCC[C@H](NC(=O)[C@H](CC(C)C)NC(=O)NNC(=O)[C@H](Cc1ccccc1)NC(=O)[C@H](CO)NC(=O)[C@H](CC(N)=O)NC(=O)C(c1ccccc1)c1ccccc1)C(=O)N[C@@H](Cc1ccccc1)C(N)=O [Compound No. 268, Diphenylacetyl-Asn-Ser-Phe-AzaGly-Leu-Arg(Me)-Phe-NH2] (Diphenylacetyl-NSF[azaGly]L[Arg(Me)]F-NH2) | 550 | 1 |
| CNC(=N)NCCC[C@H](NC(=O)[C@H](CC(C)C)NC(=O)NNC(=O)[C@H](Cc1ccccc1)NC(=O)[C@H](CO)NC(=O)[C@H](CC(N)=O)NC(=O)CCc1ccccc1)C(=O)N[C@@H](Cc1ccccc1)C(N)=O [Compound No. 269, 3-Phenylpropionyl-Asn-Ser-Phe-AzaGly-Leu-Arg(Me)-Phe-NH2] (Hydrocinnamoyl-NSF[azaGly]L[Arg(Me)]F-NH2) | 470 | 3 |
